PubChem BioAssay AID220 (DTP/NCI, 2004)
Where “and” joins values, the source holds several entries; their conditions need not be identical. Equal values may be shown once. Records with an inconclusive call do not appear.

Test system: CD8F1 mice, subcutaneous mammary adenocarcinoma, T/C%
Test: NCI In Vivo Anticancer Drug Screen. Data for tumor model Mammary Adenocarcinoma CD8F1 (subcutaneous) in CD8F1
Settings: higher = larger tumour
How it was run: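 Antitumor activity is assessed in transplantable-tumor mice by comparing the treated group with a vehicle-treated control group. Survival or tumor size serves as the measure, reported as T divided by C.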

[1] = endpoint: median tumor weight (est.), dose: 12.5 mg/kg/injection, schedule: Q07DX005 (ip), vehicle: saline with Tween-80
[2] = endpoint: median tumor weight (est.), dose: 50.0 mg/kg/injection, schedule: Q07DX005 (ip), vehicle: saline with Tween-80
[3] = endpoint: median tumor weight (est.), dose: 100.0 mg/kg/injection, schedule: Q07DX005 (ip), vehicle: saline with Tween-80
[4] = endpoint: median tumor weight (est.), dose: 200.0 mg/kg/injection, schedule: Q07DX005 (ip), vehicle: saline with Tween-80

SMILES: O=NN(CCCl)C(=O)NCCCl
- T/C (endpoint: mean tumor weight (est.), dose: 7.5 mg/kg/injection, schedule: Q07DX003 (ip), vehicle: saline + alcohol): 58 % of control
- T/C (endpoint: mean tumor weight (est.), dose: 12.5 mg/kg/injection, schedule: Q07DX003 (ip), vehicle: saline + alcohol): 46 % of control
- T/C (endpoint: mean tumor weight (est.), dose: 15.0 mg/kg/injection, schedule: Q07DX003 (ip), vehicle: saline + alcohol): 34 % of control
- T/C (endpoint: mean tumor weight, dose: 1.5 mg/kg/injection, schedule: Q01DX009 (ip), vehicle: saline): 52 % of control
- T/C (endpoint: mean tumor weight, dose: 3.0 mg/kg/injection, schedule: Q01DX009 (ip), vehicle: saline): 54 % of control
- T/C (endpoint: mean tumor weight, dose: 3.75 mg/kg/injection, schedule: Q07DX007 (ip), vehicle: saline + alcohol): 113 % of control
- T/C (endpoint: mean tumor weight, dose: 6.25 mg/kg/injection, schedule: Q01DX009 (ip), vehicle: saline): 26 % of control and 29 % of control
- T/C (endpoint: mean tumor weight, dose: 7.5 mg/kg/injection, schedule: Q07DX006 (ip), vehicle: saline + alcohol): 62 % of control
- T/C (endpoint: mean tumor weight, dose: 7.5 mg/kg/injection, schedule: Q07DX007 (ip), vehicle: saline + alcohol): 77 % of control
- T/C (endpoint: mean tumor weight, dose: 12.5 mg/kg/injection, schedule: Q07DX006 (ip), vehicle: saline + alcohol): 33 % of control
- T/C (endpoint: mean tumor weight, dose: 12.5 mg/kg/injection, schedule: Q07DX006 (ip), vehicle: saline): 5 % of control
- T/C (endpoint: mean tumor weight, dose: 15.0 mg/kg/injection, schedule: Q07DX006 (ip), vehicle: saline + alcohol): 4 % of control
- T/C (endpoint: mean tumor weight, dose: 15.0 mg/kg/injection, schedule: Q07DX007 (ip), vehicle: saline + alcohol): 60 % of control
- T/C (endpoint: median tumor weight (est.), dose: 1.5 mg/kg/injection, schedule: Q01DX005 (ip), vehicle: saline with Tween-80): 49 % of control
- T/C (endpoint: median tumor weight (est.), dose: 2.0 mg/kg/injection, schedule: Q04DX005 (ip), vehicle: saline with Tween-80): 99 % of control
- T/C (endpoint: median tumor weight (est.), dose: 2.0 mg/kg/injection, schedule: Q07DX005 (ip), vehicle: saline with Tween-80): 40 % of control and 56 % of control and 65 % of control
- T/C (endpoint: median tumor weight (est.), dose: 3.0 mg/kg/injection, schedule: Q01DX005 (ip), vehicle: saline with Tween-80): 69 % of control
- T/C (endpoint: median tumor weight (est.), dose: 4.0 mg/kg/injection, schedule: Q04DX005 (ip), vehicle: saline with Tween-80): 44 % of control
- T/C (endpoint: median tumor weight (est.), dose: 6.0 mg/kg/injection, schedule: Q01DX005 (ip), vehicle: saline with Tween-80): 29 % of control
- T/C (endpoint: median tumor weight (est.), dose: 8.0 mg/kg/injection, schedule: Q04DX005 (ip), vehicle: saline with Tween-80): 10 % of control
- T/C (endpoint: median tumor weight (est.), dose: 8.0 mg/kg/injection, schedule: Q07DX005 (ip), vehicle: saline with Tween-80): 27 % of control and 35 % of control and 38 % of control
- T/C (endpoint: median tumor weight (est.), dose: 12.0 mg/kg/injection, schedule: Q01DX005 (ip), vehicle: saline with Tween-80): 2 % of control
- T/C (endpoint: median tumor weight (est.), dose: 16.0 mg/kg/injection, schedule: Q04DX005 (ip), vehicle: saline with Tween-80): 5 % of control
- T/C (endpoint: median tumor weight (est.), dose: 16.0 mg/kg/injection, schedule: Q07DX005 (ip), vehicle: saline with Tween-80): 1 % of control and 2 % of control and 18 % of control
- T/C (endpoint: median tumor weight change, dose: 7.81 mg/kg/injection, schedule: Q01DX001 (ip), vehicle: saline + alcohol): 70 % of control
- T/C (endpoint: median tumor weight change, dose: 8.0 mg/kg/injection, schedule: Q01DX001 (ip), vehicle: saline + alcohol): 32 % of control
- T/C (endpoint: median tumor weight change, dose: 15.62 mg/kg/injection, schedule: Q01DX001 (ip), vehicle: saline + alcohol): 40 % of control
- T/C (endpoint: median tumor weight change, dose: 15.62 mg/kg/injection, schedule: Q01DX001 (ip), vehicle: saline with Tween-80): 55 % of control
- T/C (endpoint: median tumor weight change, dose: 16.0 mg/kg/injection, schedule: Q01DX001 (ip), vehicle: saline + alcohol): 31 % of control
- T/C (endpoint: median tumor weight change, dose: 31.0 mg/kg/injection, schedule: Q01DX001 (ip), vehicle: saline + alcohol): 23 % of control
- T/C (endpoint: median tumor weight change, dose: 31.25 mg/kg/injection, schedule: Q01DX001 (ip), vehicle: saline + alcohol): 31 % of control
- T/C (endpoint: median tumor weight change, dose: 31.25 mg/kg/injection, schedule: Q01DX001 (ip), vehicle: saline with Tween-80): 20 % of control
- T/C (endpoint: median tumor weight change, dose: 62.0 mg/kg/injection, schedule: Q01DX001 (ip), vehicle: saline + alcohol): -31 % of control
- T/C (endpoint: median tumor weight change, dose: 62.5 mg/kg/injection, schedule: Q01DX001 (ip), vehicle: saline + alcohol): 17 % of control
- T/C (endpoint: median tumor weight change, dose: 125.0 mg/kg/injection, schedule: Q01DX001 (ip), vehicle: saline + alcohol): -39 % of control

SMILES: COC1=C(OC)C(=O)C(SC/C=C(\C)CCCC(C)CCCC(C)CCCC(C)C)=CC1=O (centres undefined)
- T/C [1]: 164 % of control
- T/C (endpoint: median tumor weight (est.), dose: 25.0 mg/kg/injection, schedule: Q07DX005 (ip), vehicle: saline with Tween-80): 110 % of control
- T/C [2]: 32 % of control
- T/C [3]: 68 % of control
- T/C [4]: 85 % of control
- T/C (endpoint: median tumor weight (est.), dose: 400.0 mg/kg/injection, schedule: Q07DX005 (ip), vehicle: saline with Tween-80): 52 % of control

SMILES: Nc1cc2c3c(cccc3c1)C(=O)N(CCN1CCCC1)C2=O
- T/C (endpoint: median tumor weight change, dose: 15.63 mg/kg/injection, schedule: Q01DX001 (ip), vehicle: saline with Tween-80): 114 % of control

SMILES: C=C1C(C)C2C(Cc3ccccc3)NC(=O)C23C(OC(C)=O)C=CC(C)(O)C(=O)C(C)C/C=C/C3C1O (centres undefined)
- T/C (endpoint: median tumor weight (est.), dose: 0.62 mg/kg/injection, schedule: Q07DX005 (ip), vehicle: saline): 64 % of control
- T/C (endpoint: median tumor weight (est.), dose: 1.25 mg/kg/injection, schedule: Q07DX005 (ip), vehicle: saline): 61 % of control
- T/C (endpoint: median tumor weight (est.), dose: 2.5 mg/kg/injection, schedule: Q07DX005 (ip), vehicle: saline): 94 % of control
- T/C (endpoint: median tumor weight (est.), dose: 5.0 mg/kg/injection, schedule: Q07DX005 (ip), vehicle: saline): 59 % of control
- T/C (endpoint: median tumor weight (est.), dose: 10.0 mg/kg/injection, schedule: Q07DX005 (ip), vehicle: saline): 46 % of control

SMILES: CCN(CC)CCN1C(=O)C2C3C=CC(C2C1=O)C1C2C(=O)N(CCN(CC)CC)C(=O)C2C31 (centres undefined)
- T/C (endpoint: median tumor weight change, dose: 15.62 mg/kg/injection, schedule: Q01DX001 (ip), vehicle: water): 106 % of control
- T/C (endpoint: median tumor weight change, dose: 31.25 mg/kg/injection, schedule: Q01DX001 (ip), vehicle: water): 111 % of control
- T/C (endpoint: median tumor weight change, dose: 62.5 mg/kg/injection, schedule: Q01DX001 (ip), vehicle: water): 88 % of control
- T/C (endpoint: median tumor weight change, dose: 125.0 mg/kg/injection, schedule: Q01DX001 (ip), vehicle: water): 92 % of control

SMILES: CN(CO)c1nc(N(C)CO)nc(N(C)CO)n1
- T/C (endpoint: median tumor weight (est.), dose: 0.5 mg/kg/injection, schedule: Q07DX005 (ip), vehicle: saline): 56 % of control
- T/C (endpoint: median tumor weight (est.), dose: 1.0 mg/kg/injection, schedule: Q07DX005 (ip), vehicle: saline): 78 % of control
- T/C (endpoint: median tumor weight (est.), dose: 2.0 mg/kg/injection, schedule: Q07DX005 (ip), vehicle: saline): 110 % of control
- T/C (endpoint: median tumor weight (est.), dose: 4.0 mg/kg/injection, schedule: Q07DX005 (ip), vehicle: saline): 48 % of control
- T/C (endpoint: median tumor weight (est.), dose: 6.25 mg/kg/injection, schedule: Q07DX005 (ip), vehicle: saline with Tween-80): 92 % of control
- T/C (endpoint: median tumor weight (est.), dose: 8.0 mg/kg/injection, schedule: Q07DX005 (ip), vehicle: saline): 46 % of control
- T/C [1]: 116 % of control
- T/C (endpoint: median tumor weight (est.), dose: 12.5 mg/kg/injection, schedule: Q07DX006 (ip), vehicle: saline): 288 % of control
- T/C (endpoint: median tumor weight (est.), dose: 16.0 mg/kg/injection, schedule: Q07DX005 (ip), vehicle: saline): 14 % of control
- T/C (endpoint: median tumor weight (est.), dose: 25.0 mg/kg/injection, schedule: Q07DX006 (ip), vehicle: saline): 42 % of control
- T/C [2]: 94 % of control
- T/C (endpoint: median tumor weight (est.), dose: 50.0 mg/kg/injection, schedule: Q07DX006 (ip), vehicle: saline): 40 % of control
- T/C [3]: 25 % of control
- T/C (endpoint: median tumor weight (est.), dose: 100.0 mg/kg/injection, schedule: Q07DX006 (ip), vehicle: saline): 35 % of control
- T/C [4]: 31 % of control
- T/C (endpoint: median tumor weight (est.), dose: 200.0 mg/kg/injection, schedule: Q07DX006 (ip), vehicle: saline): 5 % of control

SMILES: O=c1ssc(=Nc2ccccc2)n1-c1ccccc1
- T/C (endpoint: median tumor weight (est.), dose: 25.0 mg/kg/injection, schedule: Q07DX005 (ip), vehicle: Klucel (hydroxypropylcellulose) (HPC)): 119 % of control
- T/C (endpoint: median tumor weight (est.), dose: 50.0 mg/kg/injection, schedule: Q07DX005 (ip), vehicle: Klucel (hydroxypropylcellulose) (HPC)): 90 % of control
- T/C (endpoint: median tumor weight (est.), dose: 100.0 mg/kg/injection, schedule: Q07DX005 (ip), vehicle: Klucel (hydroxypropylcellulose) (HPC)): 70 % of control
- T/C (endpoint: median tumor weight (est.), dose: 200.0 mg/kg/injection, schedule: Q07DX005 (ip), vehicle: Klucel (hydroxypropylcellulose) (HPC)): 65 % of control
- T/C (endpoint: median tumor weight (est.), dose: 400.0 mg/kg/injection, schedule: Q07DX005 (ip), vehicle: Klucel (hydroxypropylcellulose) (HPC)): 69 % of control

SMILES: COc1cc2cc3cc4cc(OC)c(OC)cc4c(C)[n+]3cc2cc1OC (tested in a mixture with another compound)
- T/C (endpoint: median tumor weight (est.), dose: 12.5 mg/kg/injection, schedule: Q07DX005 (ip), vehicle: saline): 68 % of control
- T/C (endpoint: median tumor weight (est.), dose: 25.0 mg/kg/injection, schedule: Q07DX005 (ip), vehicle: saline): 88 % of control
- T/C (endpoint: median tumor weight (est.), dose: 50.0 mg/kg/injection, schedule: Q07DX005 (ip), vehicle: saline): 82 % of control
- T/C (endpoint: median tumor weight (est.), dose: 100.0 mg/kg/injection, schedule: Q07DX005 (ip), vehicle: saline): 90 % of control
- T/C (endpoint: median tumor weight (est.), dose: 200.0 mg/kg/injection, schedule: Q07DX005 (ip), vehicle: saline): 39 % of control

SMILES: COC(=O)CC(N)C(=O)O (centres undefined)
- T/C (endpoint: median tumor weight change, dose: 125.0 mg/kg/injection, schedule: Q01DX001 (ip), vehicle: saline): 60 % of control
- T/C (endpoint: median tumor weight change, dose: 250.0 mg/kg/injection, schedule: Q01DX001 (ip), vehicle: saline): 61 % of control
